Test results: patent EP0926242A1, “GLIOTOXIN DERIVATIVES AND ANTICANCER AGENT COMPRISING THE SAME” (priority 1996, dated 1998)

Key:
[1] = tested on: human carcinoma of the colon HCT-116; test: Evaluation in vivo using human carcinoma of the colon HCT-116 (Example 1); set-up: species or system Balb/c nu/nu mice; details: for I. R. (%): day 21, Balb/c nu/nu mice
Description: Balb/c nu/nu mice (female: 5 weeks old) were bought, and HCT- 116 subcultured in vivo in the subcutaneous tissue was taken out. The HCT-116 was minced in a Petridish, and transplanted into the sulcutaneous tissue of […] mice in an amount of 30 mg/mouse by a trucker. The transplanted day was assigned day 0, and the size of the tumor and body weight were measured on day 7 and divided into groups by n=2.
Acetylgliotoxin was dissolved in dimethyl sulfoxide (DMSO) in a concentration of 100 mg/mL, and adjusted to an object concentration (0.5 mg/kg, 1 mg/kg, 10 mg/kg, 20 mg/kg) by 5 % Tween 80 (saline solution). In the evaluation of 0.5, 1 mg/kg, injection was carried out every day for 5 days, in the case of 10 mg/kg, injected twice on day 7 and day8, and in the case of 20 mg/kg, injected once on day 7.
The anticancer effect was evaluated by the inhibition rate of tumor cell multiplication (IR calculated from the weight of tumor. IR was obtained by the following formula.

[2] = Solubility of the isolated active component; format: physicochemical
Description: After cultivation by the above method was finished, an equal amount (3 L) of acetone was added to the 3 L culture solution, and extraction was carried out at room temperature for 30 minutes. Acetone was removed from the acetone-containing cultuer solution by an evaporator, and solvent extraction with ethyl acetate was carried out by a separating funnel. The solvent extract was dehydrated by sodium sulfate, and then, evaporated by an evaporator to dryness under reduced poressure to obtain 470 mg of the extract. Subsequently, the extract was adsorbed on a silica gel column, washed with toluene, and active fractions were eluted by toluene/ethyl acetate (8:2). The eluate was concentrated by an evaporator under reduced pressure to obtain 42 mg. The crude matters were subjected to high speed liquid chromatography ("Capsel-Pak C18", Shiseido, solvent: water:acetonitrile = 72:28), and a pure active substance was obtained by isochromatic elution. […] Ultraviolet absorption spectra end 266 nm (water: acetonitrile = 60 : 40) Molecular weight: 368 Thin layer chromatography: Absorbent; HPTLC Kieselgel 60 F 254 (MERK) Developing solvent: hexane : ethyl acetate = 6 : 4 R f value; 0.233 High speed liquid chromatogaphy: Used apparatus; UV detector : Waters 996 (Waters) Pump: HITACHI L―6200 (Hitachi Ltd.) Column: Reversed phase high speed liquid chromatography column for analysis (CAPCELL PAK C18 UG120 5 µ m 4.6 mm ⌀ × 250 mm (Shiseido) Solvent for elution; 30-100 % acetonitrile (linear grudient 20 minutes) Flow rate; 0.8 mL/min Retention time; about 10.5 minutes • Chemical shift values (cf. Fig. 1) in ^1H nuclear magnetic resonance spectra • ^1H―NMR (CDCl3) δ :5.97―6.04 (3H, m), 5.57 (1H, d), 5.02 (1H, d), 4.31 (1H, dd), 4.19 (1H, dd), 3.74 (1H, d), 3.44 (1H, dd), 3.17 (3H, s), 2.96 (1H, d), 2.14 (3H, s) • FAB MASS : 369 (MH^+) • Chemical shift values (cf. Fig. 2) in ^13C nuclear magnetic resonance spectra (600 MH3, CDCL3)

For `CC(=O)OC1C=CC=C2CC34SSC(CO)(C(=O)N3C21)N(C)C4=O` (centres unmarked) [acetylgliotoxin], the “I. R. (%)” value ([1]; 0.5 mg/kg×5 i.p.(d7-11)) was 41%, the “I. R. (%)” value ([1]; 1 mg/kg×5 i.p.(d7-11)) was 65% and the “I. R. (%)” value ([1]; 10 mg/kg×2 i.p.(d7, 8)) was 65%. The “I. R. (%)” value ([1]; 20 mg/kg×1 i.p. (d7)) was 28%, the “duration of anticancer effects” value ([1]; Test Example (B), 1 mg/kg × 5 and 10 mg/kg × 2) was “continued up to day 42” and the Solubility ([2]; in chloroform and dimethyl sulfoxide) was “Easily soluble”. For the same molecule, the Solubility ([2]; in ethyl acetate, acetonitrile, toluene, methanol and acetone) was “soluble” and the Solubility ([2]; in water) was “slightly soluble”.
